Source: US8349801B2, “Peptide ligands for G-protein coupled receptors” (priority 2006, dated 2013)
No end group written: not given here.

What was measured:
[1] = system: Isoproterenol induced rats; assay: Cardiac remodeling induced by Isoproterenol; assay type: in vivo, Wistar rats; conditions: 1 ug/hour/Kg osmotic minipump, partial data
Method: The effect of the peptides […] (SEQ ID NO:10), […]-dimer ([…]) (SEQ ID […]), P33_V (SEQ ID NO:7), P33-dimer (P33_D) (SEQ ID NO:6) on cardiac remodeling, was tested by determining their effect on heart hypertrophy and fibrosis (deposition of collagen I, III, and fibronectin) induced by Isoproterenol. Losartan (an antagonist of the known angiotensin II receptor, AT1, Kucharewicz et al., 2002; Hypertension, (40): 774-779) was used as positive control. The negative control group was treated with vehicle only. Additional control groups included rats not-treated with isoproterenol which were treated with the peptides, with Losartan or with the vehicle. The analysis included determination of the left ventricle mass and morphometry. In addition, immunofuorescence analysis of fibronectin and collagens I and III deposition was performed by confocal microscopy. Animals Acclimatization: Male Wistar rats Age: 13-14 weeks (250 to 300 g) were maintained in the animal facilities for 7 days before the beginning of the experiment. The animals were exposed to a brightness circle of light-dark cycle of 12 hs (day-06:00 to 18:00; night-18:00 to 06:00), and the room temperature was kept at 23±2° C. Heart failure was induced by daily injections of isoproterenol (2 mg/kg/day, subcutaneously) during 7 days. […] Immunofluorescence-labeling and quantitative confocal microscopy was used to investigate the distribution and quantity of collagen types I, III and fibronectin present in the left ventricles. […] Optimal confocal settings (aperture, gain and laser power) were determined at the beginning of each imaging session and then held constant during the analysis of all the samples. […] For quantitative analysis of collagens I, III, and fibronectin, the ImageTool 2.0 image analysis program was used ([…].edu/[…]) to measure the fluorescence intensity in images randomly selected. […]

Mas receptor = target: T1, Mas receptor (Homo sapiens, UniProt P04201); assay: Calcium flux in CHO-K1 cells co-transfected with Mas receptor and Gα16; assay type: cell-based; conditions: dose response
T1 construct: expressed in transfected cells; host or cells: CHO-K1 (ATCC-CCL-61), transient co-transfection
T1 sequence (P04201 1-325): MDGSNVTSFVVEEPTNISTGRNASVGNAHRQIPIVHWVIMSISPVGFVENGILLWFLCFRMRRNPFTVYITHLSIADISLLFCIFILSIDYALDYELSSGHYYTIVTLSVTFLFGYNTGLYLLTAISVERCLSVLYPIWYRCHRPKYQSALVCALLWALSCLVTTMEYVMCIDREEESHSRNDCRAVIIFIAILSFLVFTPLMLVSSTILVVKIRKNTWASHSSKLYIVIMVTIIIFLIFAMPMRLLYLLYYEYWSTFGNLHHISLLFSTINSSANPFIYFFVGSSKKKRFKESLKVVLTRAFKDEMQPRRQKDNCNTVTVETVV
Method: The assay was carried out in CHO cells were transiently transfected with the GPCR of choice, by utilizing the promiscuous Gα16 to divert signaling to the Gq pathway, thus enabling readout of GPCR activation by testing for Calcium flux as described by Liu et al 2003 (Biomol Screen 8, 39-49).
All the peptides thus obtained were tested for their ability to change calcium flux in CHO—K1 cells (ATCC-CCL-61) transiently co-transfected with an expression vector containing the GPCR of choice and expression vector containing the Gα16 encoding cDNA. Expression constructs containing cDNA clones for MrgX1, MrgX2, Mas or FPRL1 were commercially obtained in one of the following expression vectors: pcDNA3.1, pCMV6, or MO2.
Transient transfections were performed using CHO—K1 cells as host cells. Cells (12 million) were plated into T75 flasks on the day preceding transfection. Cells were transfected with the appropriate GPCR expression vector and with a vector expressing Gα16 using a lipid-based reagent, MTI, according to the manufacturer's recommendation. Cells were transfected for 5 hours, then re-plated into 96-well dishes (60,000 cells per well) and grown overnight.
On the day of the experiment, cells were loaded with Fluo4-NW (Invitrogen) according to the manufacturer's recommendation. Plates were loaded into a FlexStation™ (Molecular Devices) plate reader and fluorescence was monitored. Seventeen seconds following initiation of reading, cells were stimulated with the indicated agonist/compound at final concentration of 1 μM. Each 96 well plate contained cells transfected with one GPCR expression vector and each of the examined peptides was tested in triplicate.
We defined a hit as a peptide which elicited a clear and distinct increase in intracellular calcium that is clearly visible and statistically significant upon examination of the calcium trace for at least two repeats. The criterion for statistical significance was a p-value lower than 0.001 in a t-test comparing the levels of calcium before and after peptide addition.
Based on dose response experiments, EC50 best fit values were calculated by non-linear regression of sigmoidal dose-response curves, using Prism version 4 (GraphPad Software Inc., San Diego, Calif.). The formulae for the sigmoidal dose-response curves was defined as Y=Bottom+(Top−Bottom)/(1+10^ (LogEC50−X)*HillSlope))
The ability of Peptides to change calcium flux was examined in CHO—K1 cells co-transfected with Mas receptor and Gα16.

FLGYCIYLNRKRRGDPAFKRRLRD (also: dimer via cysteine; listed as Homo sapiens) [Peptide P61_dimer]
effect as measured by Fibronectin deposition ([1]; 3 out of 6 animals): not significant | heart hypertrophy induced by Isoproterenol, as indicated by deposition of fibronectin, Collagen I and Collagen III ([1]; 3 out of 6 animals of each group): effective in reducing the heart hypertrophy | ability to induce calcium flux, P61-related peptides compared (Mas receptor): more potent than the monomeric P61 peptides
